# Patent US20140308317A1, “Polymeric Compounds And Methods Of Making And Using The Same” (CELLCEUTIX CORPORATION, priority 2012, published 2014)
# Tests used:
# [1] = Cytotoxicity colorimetric (tetrazolium) assay; type: cell-based, mouse; conditions: mouse, NIH/3T3 cells (CRL-1658), NIH/3T3 cells; one hour with compound in serum-free media
# Outline: (§1)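 HepG2 (MEM, 10% FBS) and NIH/3T3 (DMEM, 10% BCS) monolayers seeded at 2×10^4 cells/well 24 h before use, then exposed to compounds for one hour in serum-free medium. After return to serum-containing medium, viable cells read by tetrazolium bioreduction to formazan. EC50 in μg/mL from four-parameter logistic fit.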
# [2] = tested on: NIH/3T3 cells, CRL-1658; assay: Cytotoxicity colorimetric (tetrazolium) assay; type: cell-based, mouse; conditions: NIH/3T3 cells; one hour with compound in serum-free media
# Outline: as §1
# [3] = tested on: Enterococcus faecalis ATCC 29212; assay: Minimum Inhibitory Concentration (MIC), modified microbroth dilution; type: cell-based; conditions: E. faecalis (29212), overnight incubation (18 hours)
# [4] = tested on: HepG2, HB-8065; assay: Cytotoxicity colorimetric (tetrazolium) assay; type: cell-based, human; conditions: HepG2 cells; one hour with compound in serum-free media
# Outline: as §1
# [5] = Cytotoxicity colorimetric (tetrazolium) assay; type: cell-based, human; conditions: human, HepG2 cells (HB-8065), HepG2 cells; one hour with compound in serum-free media
# Outline: as §1
# [6] = tested on: E. Coli ATCC 25922; assay: Minimum Inhibitory Concentration (MIC), modified microbroth dilution; type: cell-based; conditions: E. coli (25922), overnight incubation (18 hours)
# [7] = tested on: Klebsiella pneumoniae ATCC 13883; assay: as above; type: cell-based; conditions: K. pneumoniae (13883), overnight incubation (18 hours)
# [8] = tested on: Staphylococcus aureus ATCC 27660; assay: as above; type: cell-based; conditions: S. aureus (27660), overnight incubation (18 hours)
# [9] = tested on: Pseudomonas aeruginosa ATCC 10145; assay: as above; type: cell-based; conditions: P. aeruginosa (10145), overnight incubation (18 hours)
# [10] = tested on: S. enteritidis ATCC 13076; assay: Time-kill study; type: cell-based
# Description: Time-kill studies of the compounds versus S. enteritidis ATCC 13076, E. coli ATCC25922, E. coli (lab strain) D31, and S. aureus ATCC27660 were determined in a standard protocol by measuring the time it takes to reduce the initial inoculums 3 log units. Three mL of cation-adjusted Mueller-Hinton medium was inoculated with 20 μL of frozen bacterial stock and incubated at 37° C. on a shaker platform (at 250 rpm) overnight. The suspension was diluted to approximately 5×10^5 cfu/mL and treated with 2×, 5×, 10×, and 20×MIC (MIC=1 μg/mL). The compound stock solutions were prepared at 10 mg/mL in DMSO. Time points were collected and viable bacteria were counted on MH Agar plates after an 18 hour incubation.
# The time kill study was carried on Compound 200 against S. enteritidis ATCC 13076.
SMILES,EC50 at 1 h [1] [mg/L],EC50 NIH 3T3 (cytotoxicity) [2] [mg/L],"MIC50 ([3]; Enterococcus faecalis, ATCC29212, read-out: MIC50 E. faecalis) [mg/L]",EC50 HepG2 (cytotoxicity) [4] [mg/L],EC50 at 1 h [5] [mg/L],"MIC50 ([6]; Escherichia coli, ATCC25922, read-out: MIC50 E. coli) [mg/L]","MIC50 ([7]; Klebsiella pneumoniae, ATCC13883, read-out: MIC50 K. Pnuemnoiae) [mg/L]","MIC50 ([8]; Staphylococcus aureus, ATCC27660, read-out: MIC50 S. aureus) [mg/L]","MIC50 ([9]; Pseudomonas aeruginosa, ATCC10145, read-out: MIC50 P. Aeruginosa) [mg/L]",MIC50 E. faecalis [3] [mg/L],time at which bacterial growth was reduced more than 3 log ([10]; 2×MIC) [hour],time at which bacterial growth was reduced more than 3 log ([10]; 5×MIC) [hour],time at which bacterial growth was reduced more than 3 log ([10]; 10×MIC) [hour],MIC50 E. coli [6] [mg/L],MIC50 K. Pnuemnoiae [7] [mg/L],MIC50 S. aureus [8] [mg/L],MIC50 P. Aeruginosa [9] [mg/L]
NCCCOc1cc(OCCCN)cc(-c2ccc3c(c2)C(=O)c2cc(-c4cc(OCCCN)cc(OCCCN)c4)ccc2CC3)c1 [Compound 156],49.4,88.1,12.5,143.7,74.2,3.13,12.5,0.098,6.25,–,–,–,–,–,–,–,–
NCCCOc1cc(OCCCN)cc(-c2ccc3sc4ccc(-c5cc(OCCCN)cc(OCCCN)c5)cc4c3c2)c1 [Compound 200],–,155,–,126,–,–,–,–,–,0.39,3.75,1.55,1.35,0.78,1.56,0.049,3.13
NCCCNC(=O)c1cc(C(=O)NCCCN)cc(-c2ccc3sc4ccc(-c5cc(C(=O)NCCCN)cc(C(=O)NCCCN)c5)cc4c3c2)c1 [Compound 171],–,46.5,–,236,–,–,–,–,–,>100,–,–,–,>100,>100,6.25,>100
